In ChEMBL document CHEMBL3045092, “Synthesis and Fungicidal Activity of 2-Imino-3-(4-arylthiazol-2-yl)-thiazolidin-4-ones and Their 5-Arylidene Derivatives” (2000):

Columns and labels:
Format in all cases: functional
Conditions in all cases: read-out: GI
[1] = test system: Pleurotus ostreatus; experiment: Fungicidal activity against Pleurotus ostreatus assessed as growth inhibition at 50 ppm after 48 hr relative to untreated control
[2] = test system: Fusarium graminearum; experiment: Fungicidal activity against Fusarium graminearum assessed as growth inhibition at 50 ppm after 48 hr relative to untreated control
[3] = test system: Pyricularia oryzae; experiment: Fungicidal activity against Magnaporthe oryzae assessed as growth inhibition at 50 ppm after 48 hr relative to untreated control
[4] = test system: Gaeumannomyces graminis; experiment: Fungicidal activity against Gaeumannomyces graminis assessed as growth inhibition at 50 ppm after 48 hr relative to untreated control
[5] = test system: Botrytis cinerea; experiment: Fungicidal activity against Botryotinia fuckeliana assessed as growth inhibition at 50 ppm after 48 hr relative to untreated control
[6] = test system: Pythium aphanidermatum; experiment: Fungicidal activity against Pythium aphanidermatum assessed as growth inhibition at 50 ppm after 48 hr relative to untreated control
[7] = test system: Aspergillus niger; experiment: Fungicidal activity against Aspergillus niger assessed as growth inhibition at 50 ppm after 48 hr relative to untreated control

Row | Structure (SMILES) | inhibition of growth at 50 ppm [1] [%] | inhibition of growth at 50 ppm [2] [%] | inhibition of growth at 50 ppm [3] [%] | inhibition of growth at 50 ppm [4] [%] | inhibition of growth at 50 ppm [5] [%] | inhibition of growth at 50 ppm [6] [%] | inhibition of growth at 50 ppm [7] [%]
1 | N=C1SCC(=O)N1c1nc(-c2ccccc2)cs1 | 82.6 | 21.1 | 58.8 | 60 | 3.5 | 8.8 | 54.3
2 | N=C1SCC(=O)N1c1nc(-c2ccc(Cl)cc2)cs1 | 72.4 | 29.7 | 58.8 | 51.3 | 0 | 3.8 | 52.3
3 | N=C1SCC(=O)N1c1nc(-c2ccc([N+](=O)[O-])cc2)cs1 | 12.4 | 2.2 | 38.1 | 26.7 | 0 | 8.8 | 56.2
4 | N=C1SCC(=O)N1c1nc(-c2cc(F)c(Cl)cc2Cl)cs1 | 95 | 38.8 | 76.3 | 91.3 | 38.2 | 12.5 | 58.8
5 | N=C1SCC(=O)N1c1nc(-c2ccc(Cl)cc2Cl)cs1 | 97.2 | 48.6 | 79.4 | 86.7 | 0 | 0 | 62.8
6 | N=C1S/C(=C\c2ccccc2[N+](=O)[O-])C(=O)N1c1nc(-c2ccccc2)cs1 | 84.1 | 61.9 | 20.2 | 0 | 64.7 | 3.8 | 54.3
7 | N=C1S/C(=C\c2cccc([N+](=O)[O-])c2)C(=O)N1c1nc(-c2ccccc2)cs1 | 5.9 | 20.6 | 3.2 | 0 | 0 | 25 | 49.7
8 | N=C1S/C(=C\c2ccccc2Cl)C(=O)N1c1nc(-c2ccccc2)cs1 | 0 | 37.4 | 0 | 0 | 27.5 | 17.2 | 23.6
9 | N=C1S/C(=C\c2ccccc2[N+](=O)[O-])C(=O)N1c1nc(-c2ccc(Cl)cc2)cs1 | 84.8 | 58.8 | 14.8 | 0 | 66.7 | 12.5 | 60.8
10 | N=C1S/C(=C\c2cccc([N+](=O)[O-])c2)C(=O)N1c1nc(-c2ccc(Cl)cc2)cs1 | 84.1 | 61.9 | 26.5 | 0 | 71.3 | 16.3 | 58.8
11 | N=C1S/C(=C\c2ccccc2Cl)C(=O)N1c1nc(-c2ccc(Cl)cc2)cs1 | 0 | 31.8 | 0 | 0 | 0 | 46.2 | 40.8
12 | N=C1S/C(=C\c2ccccc2[N+](=O)[O-])C(=O)N1c1nc(-c2ccc([N+](=O)[O-])cc2)cs1 | 7.2 | 24.7 | 3.2 | 0 | 33.3 | 16.3 | 62.8
13 | N=C1S/C(=C\c2cccc([N+](=O)[O-])c2)C(=O)N1c1nc(-c2ccc([N+](=O)[O-])cc2)cs1 | 29.8 | 51.6 | 0 | 0 | 4.7 | 0 | 52.3
14 | N=C1S/C(=C\c2ccccc2Cl)C(=O)N1c1nc(-c2ccc([N+](=O)[O-])cc2)cs1 | 0 | 28 | 2.1 | 37.1 | 60.8 | 28 | 42.7
15 | N=C1S/C(=C\c2ccccc2)C(=O)N1c1nc(-c2cc(F)c(Cl)cc2Cl)cs1 | 11.5 | 38.1 | 4.1 | 0 | 28.7 | 0 | 47.7
16 | N=C1S/C(=C\c2ccccc2[N+](=O)[O-])C(=O)N1c1nc(-c2cc(F)c(Cl)cc2Cl)cs1 | 15.2 | 48.5 | 50.4 | 0 | 2 | 0 | 49.7
17 | N=C1S/C(=C\c2cccc([N+](=O)[O-])c2)C(=O)N1c1nc(-c2cc(F)c(Cl)cc2Cl)cs1 | 32.6 | 45.4 | 11.7 | 0 | 24.7 | 33.8 | 69.3
